{
  "source": "paper PMC8881610",
  "about": "(Nature Communications, 2022)",
  "assay_in_all_cases": "cAMP accumulation assay (LANCE Ultra cAMP kit), GIPR WT, mutant or modified constructs",
  "format_in_all_cases": "cell-based",
  "set-up_in_all_cases": "acylated tirzepatide to the full-length or modified; Flag; expressed in transfected cells; host or cells: HEK293T",
  "key": {"[1]": {"target": "T1, GIPR (Homo sapiens, UniProt P48546, F127A)", "T1 sequence (P48546 22-466 F127A)": "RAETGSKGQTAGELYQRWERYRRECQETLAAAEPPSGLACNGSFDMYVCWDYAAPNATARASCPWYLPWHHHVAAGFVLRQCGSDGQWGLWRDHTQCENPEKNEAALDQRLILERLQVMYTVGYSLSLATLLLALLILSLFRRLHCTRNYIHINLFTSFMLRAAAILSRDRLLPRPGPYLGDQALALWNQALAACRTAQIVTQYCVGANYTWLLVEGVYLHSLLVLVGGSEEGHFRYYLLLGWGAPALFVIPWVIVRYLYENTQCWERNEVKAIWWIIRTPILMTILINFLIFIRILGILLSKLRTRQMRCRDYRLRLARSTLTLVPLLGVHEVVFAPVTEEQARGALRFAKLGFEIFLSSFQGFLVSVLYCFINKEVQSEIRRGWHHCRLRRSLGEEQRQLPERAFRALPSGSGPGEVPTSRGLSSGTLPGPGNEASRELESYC", "conditions": "GIPR F127A, HEK293T", "procedure,_shortened": "(§1)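 HEK293T cells transiently transfected with human GIPR WT or mutant constructs (pcDNA3.1), used after 24 h. The cells were stimulated with peptide agonists for 40 min at RT in HBSS with 5 mM HEPES, 0.1% BSA or casein, and 0.5 mM IBMX. cAMP was read by LANCE Ultra TR-FRET (Eu-cAMP tracer/ULight anti-cAMP, 1 h RT, 620/650 nm).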"}, "[2]": {"target": "T2, GIPR (Homo sapiens, UniProt P48546, D191A)", "T2 sequence (P48546 22-466 D191A)": "T1 sequence (P48546 22-466 F127A) with A106F, D170A", "conditions": "HEK-293T, GIPR D191A; HEK293T", "procedure,_shortened": "as §1"}, "[3]": {"target": "T3, GIPR (Homo sapiens, UniProt P48546, R196A)", "T3 sequence (P48546 22-466 R196A)": "T1 sequence (P48546 22-466 F127A) with A106F, R175A", "conditions": "GIPR R196A, HEK293T", "procedure,_shortened": "as §1"}, "[4]": {"conditions": "read-out: cAMP pEC50 (converted)"}},
  "note": "Numbering of substitutions follows the chain as printed.",
  "data": [
    {"smiles": "CCCCCCCCCCCCCCCC(=O)N[C@@H](CCC(=O)NCCCC[C@H](NC(=O)[C@H](CC(=O)O)NC(=O)[C@H](CO)NC(=O)[C@@H](NC(=O)[C@H](Cc1ccccc1)NC(=O)[C@@H](NC(=O)CNC(=O)[C@H](CCC(N)=O)NC(=O)C(C)(C)NC(=O)[C@@H](N)Cc1c[nH]cn1)[C@@H](C)O)[C@@H](C)O)C(=O)N[C@@H](CO)C(=O)N[C@@H](CCCCN)C(=O)N[C@@H](Cc1ccc(O)cc1)C(=O)N[C@@H](CC(C)C)C(=O)N[C@@H](CC(=O)O)C(=O)N[C@@H](CCC(=O)O)C(=O)N[C@@H](CCCNC(=N)N)C(=O)N[C@@H](C)C(=O)N[C@@H](C)C(=O)N[C@@H](CCC(N)=O)C(=O)N[C@@H](CC(=O)O)C(=O)N[C@@H](Cc1ccccc1)C(=O)N[C@H](C(=O)N[C@@H](CCC(N)=O)C(=O)N[C@@H](Cc1c[nH]c2ccccc12)C(=O)N[C@@H](CC(C)C)C(=O)N[C@@H](CC(C)C)C(=O)N[C@@H](CC(=O)O)C(=O)NCC(=O)NCC(=O)N1CCC[C@H]1C(=O)N[C@@H](CO)C(=O)N[C@@H](CO)C(=O)NCC(=O)N[C@@H](C)C(=O)N1CCC[C@H]1C(=O)N1CCC[C@H]1C(=O)N1CCC[C@H]1C(=O)N[C@@H](CO)C(N)=O)C(C)C)C(=O)O", "note": "[Peptide 20]", "values": [
      {"measurement": "EC50", "setting": "[1]; [4]", "result": 0.00457, "unit": "nM"},
      {"measurement": "Emax", "setting": "[1]; HEK-293T", "result": "100 ± 1.64", "unit": "%"},
      {"measurement": "Emax", "setting": "[2]", "result": "51.7 ± 5.96", "unit": "%"},
      {"measurement": "EC50", "setting": "[3]; [4]", "result": 0.0468, "unit": "nM"},
      {"measurement": "Emax", "setting": "[3]; HEK-293T", "result": "98.5 ± 1.43", "unit": "%"}
    ]}
  ]
}
